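These data come from cells grown in 96-well plates and exposed to compound for 48 hours at five concentrations. At the TGI there is no net growth.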
Key:
Assay in all cases: NCI-60 cell line screen, 48 h
TK-10 renal = test system: TK-10 renal
OVCAR-3 ovarian = test system: OVCAR-3 ovarian
MOLT-4 leukemia = test system: MOLT-4 leukemia
IGROV1 ovarian = test system: IGROV1 ovarian
SF-539 CNS = test system: SF-539 CNS
MDA-MB-231 breast = test system: MDA-MB-231 breast
NCI-H226 lung = test system: NCI-H226 lung
HT29 colon = test system: HT29 colon
SR leukemia = test system: SR leukemia
U251 CNS = test system: U251 CNS
T-47D breast = test system: T-47D breast
RXF 393 renal = test system: RXF 393 renal
OVCAR-5 ovarian = test system: OVCAR-5 ovarian
SF-268 CNS = test system: SF-268 CNS
HOP-92 NSCLC = test system: HOP-92 NSCLC
COLO 205 colon = test system: COLO 205 colon
HCT-116 colon = test system: HCT-116 colon
SK-MEL-5 melanoma = test system: SK-MEL-5 melanoma
A498 renal = test system: A498 renal

Compound	TGI (TK-10 renal) [µM]	TGI (OVCAR-3 ovarian) [µM]	TGI (MOLT-4 leukemia) [µM]	TGI (IGROV1 ovarian) [µM]	TGI (SF-539 CNS) [µM]	TGI (MDA-MB-231 breast) [µM]	TGI (NCI-H226 lung) [µM]	TGI (HT29 colon) [µM]	TGI (SR leukemia) [µM]	TGI (U251 CNS) [µM]	TGI (T-47D breast) [µM]	TGI (RXF 393 renal) [µM]	TGI (OVCAR-5 ovarian) [µM]	TGI (SF-268 CNS) [µM]	TGI (HOP-92 NSCLC) [µM]	TGI (COLO 205 colon) [µM]	TGI (HCT-116 colon) [µM]	TGI (SK-MEL-5 melanoma) [µM]	TGI (A498 renal) [µM]
CCOc1ncn(-c2ccc(NC(=S)Nc3cnccn3)cc2)n1	> 10	> 10	> 10	> 10	> 10	> 10	> 10	> 10	> 10	> 10	> 10	> 10	> 10	> 10	> 10	–	–	–	–
N#C/C(=C\c1ccc(F)cc1)c1nc2ccccc2c(=O)[nH]1	> 100	–	> 100	> 100	> 100	> 100	> 100	> 100	> 100	> 100	> 100	> 100	> 100	> 100	> 100	> 100	> 100	–	–
NC(N)=NCc1ccc2c(c1)OCO2	> 100	> 100	> 100	> 100	> 100	> 100	–	> 100	> 100	> 100	> 100	> 100	> 100	> 100	> 100	–	> 100	49.7	> 100
CC1(C)C(=O)N(O)C(C)(C)N1N=O	> 10	> 10	> 10	–	–	> 10	> 10	> 10	> 10	> 10	> 10	> 10	> 10	> 10	> 10	> 10	> 10	–	–
COc1cc(/C=C/C=C2\CCC/C(=C\C=C\c3ccc(O)c(OC)c3)C2=O)ccc1O	52	> 100	10.4	74.7	45.9	> 100	–	31.1	19.7	> 100	36.7	41.7	79.5	40.4	44.9	71.5	49	27.2	–
COc1cc(OC)cc(-n2c(N)c(-c3nc4ccccc4s3)c3ccc([N+](=O)[O-])cc3c2=O)c1	38.8	–	–	–	37.5	> 100	> 100	> 100	89.7	> 100	> 100	–	–	> 100	15.8	> 100	> 100	> 100	76.7
CCc1cccc(CC)c1Nc1nc2c(s1)C(=O)c1ccccc1C2=O	36.6	34	> 100	25.7	49.1	41.4	–	–	89.5	29.8	> 100	40.3	39.7	41.7	44.7	49.6	31.4	47.9	–
CCOC(=O)c1c(C)noc1/N=N/N(CCO)CCO	> 100	59.4	60.3	> 100	–	> 100	63.5	> 100	66.1	> 100	39.7	50.3	> 100	> 100	88.5	70.1	> 100	32.5	75.3
COc1cc(/C=C2\N=C(c3ccccc3)N(c3nc4cc(C)c(C)cc4s3)C2=O)cc(OC)c1OC	> 100	49.1	30.3	> 100	51.4	> 100	–	48.6	53.1	66.1	> 100	65.2	84.2	> 100	64.8	> 100	50.4	> 100	–
CC(=O)OCC1OC(O[C@@H]2C[C@H]3C(C)(C)[C@H](OC(C)=O)CC[C@]3(C)[C@H]3CC[C@]4(C)C(=CC[C@H]4[C@@H](C)C[C@@H](O)[C@H](O)C(C)(C)O)[C@@]32C)C(O)C(O)C1O (stereo not given in full)	32	28.7	31.8	33.8	29.9	31.2	–	32.5	31.8	25.3	32	–	27.1	29.3	30.9	27.7	27.5	–	34
CCCCCCCC/C=C\CCCCCCCC(=O)OC[C@]1(CO)CCC(=O)O1	> 100	> 100	> 100	> 100	–	> 100	> 100	> 100	> 100	> 100	> 100	> 100	> 100	> 100	> 100	> 100	> 100	> 100	> 100
Cc1ccc(S(=O)(=O)NC(=O)NC(C(=O)O)C(C)O)cc1 (stereo not given)	> 100	–	> 100	> 100	> 100	> 100	–	> 100	> 100	> 100	> 100	> 100	> 100	> 100	> 100	> 100	> 100	> 100	–
